Results reported in ChEMBL document CHEMBL4396926, “Design, Synthesis and Anticancer Evaluation of New Substituted Thiophene-Quinoline Derivatives” (Bioorg Med Chem, 2019).

Experiments:
HCT-116 [1] = test: Cytotoxicity against human HCT116 cells assessed as increase in growth inhibition by measuring decrease in cell viability incubated for 72 hrs and measured after 2 hrs by microplate reader based WST-1 assay; type: functional
DNA topoisomerase II [2] = target: T1, DNA topoisomerase II (Homo sapiens, UniProt P11388+Q02880); test: Inhibition of DNA topoisomerase 2 in human HeLa cells at 1 uM incubated for 18 to 24 hrs by kinase assay relative to control; type: cell-based
DNA topoisomerase II [3] = target: T1, DNA topoisomerase II; test: Inhibition of DNA topoisomerase 2 in human HeLa cells at 0.2 uM incubated for 18 to 24 hrs by kinase assay relative to control; type: cell-based
DNA topoisomerase II [4] = target: T1, DNA topoisomerase II; test: Inhibition of DNA topoisomerase 2 in human HeLa cells incubated for 18 to 24 hrs by kinase assay; type: cell-based
[5] = target: Epidermal growth factor receptor (Homo sapiens, UniProt P00533); test: Inhibition of EGFR-TK in human HeLa cells overexpressing EGFR incubated for 18 to 24 hrs by kinase assay; type: cell-based
DNA topoisomerase II [6] = target: T1, DNA topoisomerase II; test: Inhibition of DNA topoisomerase 2 in human HeLa cells at 25 uM incubated for 18 to 24 hrs by kinase assay relative to control; type: cell-based
HeLa [7] = test: Induction of apoptosis in human HeLa cells assessed as increase in caspase 9 activation by measuring fold increase in caspase 9 level by fluorescence based solid phase sandwich ELISA; type: functional
MCF7 [8] = test: Cytotoxicity against human MCF7 cells assessed as increase in growth inhibition by measuring decrease in cell viability incubated for 72 hrs and measured after 2 hrs by microplate reader based WST-1 assay; type: functional
HeLa [9] = test: Induction of apoptosis in human HeLa cells assessed as increase in caspase 3 activation by measuring fold increase in caspase 3 level by fluorescence based solid phase sandwich ELISA; type: functional
HepG2 [10] = test: Cytotoxicity against human HepG2 cells assessed as increase in growth inhibition by measuring decrease in cell viability incubated for 72 hrs and measured after 2 hrs by microplate reader based WST-1 assay; type: functional
DNA topoisomerase II [11] = target: T1, DNA topoisomerase II; test: Inhibition of DNA topoisomerase 2 in human HeLa cells at 5 uM incubated for 18 to 24 hrs by kinase assay relative to control; type: cell-based
HeLa [12] = test: Cytotoxicity against human HeLa cells assessed as increase in growth inhibition by measuring decrease in cell viability incubated for 72 hrs and measured after 2 hrs by microplate reader based WST-1 assay; type: functional
HeLa [13] = test: Cytotoxicity against human HeLa cells assessed as cell growth inhibition at 3.125 to 100 uM incubated for 72 hrs and measured after 2 hrs by microplate reader based WST-1 assay relative to control; type: functional
MCF7 [14] = test: Cytotoxicity against human MCF7 cells assessed as cell growth inhibition at 3.125 to 100 uM incubated for 72 hrs and measured after 2 hrs by microplate reader based WST-1 assay relative to control; type: functional
HCT-116 [15] = test: Cytotoxicity against human HCT116 cells assessed as cell growth inhibition at 3.125 to 100 uM incubated for 72 hrs and measured after 2 hrs by microplate reader based WST-1 assay relative to control; type: functional
HepG2 [16] = test: Cytotoxicity against human HepG2 cells assessed as cell growth inhibition at 3.125 to 100 uM incubated for 72 hrs and measured after 2 hrs by microplate reader based WST-1 assay relative to control; type: functional
DNA topoisomerase II [17] = target: T1, DNA topoisomerase II; test: Inhibition of DNA topoisomerase 2 in human MCF7 cells incubated for 18 to 24 hrs by kinase assay; type: cell-based
DNA topoisomerase II [18] = target: T1, DNA topoisomerase II; test: Inhibition of DNA topoisomerase 2 in human MCF7 cells at 5 uM incubated for 18 to 24 hrs by kinase assay relative to control; type: cell-based
DNA topoisomerase II [19] = target: T1, DNA topoisomerase II; test: Inhibition of DNA topoisomerase 2 in human MCF7 cells at 25 uM incubated for 18 to 24 hrs by kinase assay relative to control; type: cell-based
MCF7 [20] = test: Induction of apoptosis in human MCF7 cells assessed as increase in caspase 9 activation by measuring fold increase in caspase 9 level by fluorescence based solid phase sandwich ELISA; type: functional
[21] = Homo sapiens, HCT-116, read-out: IC50
[22] = Homo sapiens, MCF7, read-out: IC50
[23] = Homo sapiens, HepG2, read-out: IC50
[24] = Homo sapiens, HeLa, read-out: IC50

Epidermal growth factor receptor, sequence (P00533 whole entry): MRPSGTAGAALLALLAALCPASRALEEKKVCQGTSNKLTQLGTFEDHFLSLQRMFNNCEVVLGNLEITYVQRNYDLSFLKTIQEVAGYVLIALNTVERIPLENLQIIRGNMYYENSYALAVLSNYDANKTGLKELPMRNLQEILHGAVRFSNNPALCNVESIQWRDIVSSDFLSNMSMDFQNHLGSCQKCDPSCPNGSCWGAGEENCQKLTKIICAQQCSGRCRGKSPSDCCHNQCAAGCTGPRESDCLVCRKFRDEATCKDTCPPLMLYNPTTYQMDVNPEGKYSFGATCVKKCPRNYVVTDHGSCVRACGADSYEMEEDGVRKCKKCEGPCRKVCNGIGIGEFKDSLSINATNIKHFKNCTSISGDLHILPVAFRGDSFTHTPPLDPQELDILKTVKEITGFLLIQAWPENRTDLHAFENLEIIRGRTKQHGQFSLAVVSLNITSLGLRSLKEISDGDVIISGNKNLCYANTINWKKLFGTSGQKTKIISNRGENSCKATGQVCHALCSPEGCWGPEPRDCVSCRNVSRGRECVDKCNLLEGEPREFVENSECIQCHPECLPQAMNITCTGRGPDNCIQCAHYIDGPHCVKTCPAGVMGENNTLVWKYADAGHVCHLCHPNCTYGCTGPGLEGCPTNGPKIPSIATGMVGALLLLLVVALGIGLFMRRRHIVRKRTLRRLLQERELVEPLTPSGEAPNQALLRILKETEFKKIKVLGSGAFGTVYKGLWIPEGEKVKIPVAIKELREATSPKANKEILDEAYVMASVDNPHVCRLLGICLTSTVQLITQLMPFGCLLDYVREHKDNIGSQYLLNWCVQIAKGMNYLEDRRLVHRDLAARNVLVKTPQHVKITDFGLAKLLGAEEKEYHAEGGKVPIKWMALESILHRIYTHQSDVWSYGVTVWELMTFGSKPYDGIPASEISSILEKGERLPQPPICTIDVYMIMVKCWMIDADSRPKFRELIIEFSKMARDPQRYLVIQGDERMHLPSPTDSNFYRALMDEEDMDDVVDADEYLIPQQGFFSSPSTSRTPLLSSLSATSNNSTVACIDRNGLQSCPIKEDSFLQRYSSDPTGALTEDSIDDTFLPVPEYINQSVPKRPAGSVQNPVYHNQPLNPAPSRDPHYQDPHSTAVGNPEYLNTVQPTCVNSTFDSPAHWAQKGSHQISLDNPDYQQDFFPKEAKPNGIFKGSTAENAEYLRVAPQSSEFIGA

## OC(c1cccs1)c1cc2ccccc2nc1Cl (stereo not drawn)
HCT-116 [1]; [21]
  IC50: 69.3 µM
DNA topoisomerase II [2]
  inhibition: 20%
DNA topoisomerase II [3]
  inhibition: 3.85%
DNA topoisomerase II [4]
  IC50: 4.95 µM
[5]
  IC50: 6.3 µM
DNA topoisomerase II [6]
  inhibition: 80.7%
HeLa [7]
  fold change (FC): 72.6
MCF7 [8]; [22]
  IC50: 80.6 µM
HeLa [9]
  fold change (FC): 12.8
HepG2 [10]; [23]
  IC50: 80.8 µM
DNA topoisomerase II [11]
  inhibition: 45%
HeLa [12]; [24]
  IC50: 17.5 µM

## Oc1ccc(-c2cc(COC(c3cccs3)c3cc4ccccc4nc3Cl)on2)cc1 (stereo not drawn)
HCT-116 [1]; hct-116
  IC50: Not Active
HeLa [13]
  growth inhibition (GI): <10%
MCF7 [14]
  growth inhibition (GI): <10%
HCT-116 [15]
  growth inhibition (GI): 14.27%
MCF7 [8]; mcf7
  IC50: Not Active
HepG2 [16]
  growth inhibition (GI): 64.51%
HepG2 [10]; [23]
  IC50: 178 µM
HeLa [12]; hela
  IC50: Not Active

## Cc1ccc(-c2cc(COC(c3cccs3)c3cc4ccccc4nc3Cl)on2)cc1 (stereo not drawn)
HCT-116 [1]; [21]
  IC50: 115 µM
HeLa [13]
  growth inhibition (GI): <10%
MCF7 [14]
  growth inhibition (GI): 22.03%
HCT-116 [15]
  growth inhibition (GI): 43.91%
MCF7 [8]; mcf7
  IC50: Not Active
HepG2 [16]
  growth inhibition (GI): 31.77%
HepG2 [10]; hepg2
  IC50: Not Active
HeLa [12]; hela
  IC50: Not Active

## Cc1ccc(-n2cc(COC(c3cccs3)c3cc4ccccc4nc3Cl)nn2)cc1 (stereo not drawn)
HeLa [13]
  growth inhibition (GI): <10%
MCF7 [14]
  growth inhibition (GI): <10%
HCT-116 [15]
  growth inhibition (GI): 13.03%
HepG2 [16]
  growth inhibition (GI): 18.78%

## FC(F)(F)c1ccc(-n2cc(COC(c3cccs3)c3cc4ccccc4nc3Cl)nn2)cc1 (stereo not drawn)
HeLa [13]
  growth inhibition (GI): <10%
MCF7 [14]
  growth inhibition (GI): <10%
HCT-116 [15]
  growth inhibition (GI): 35.86%
HepG2 [16]
  growth inhibition (GI): <10%

## Cc1cc(C)c(COC(c2cccs2)c2cc3ccccc3nc2Cl)c(C)c1 (stereo not drawn)
HeLa [13]
  growth inhibition (GI): 42.48%
MCF7 [14]
  growth inhibition (GI): 21.49%
HCT-116 [15]
  growth inhibition (GI): 26.37%
HepG2 [16]
  growth inhibition (GI): 24.76%

## O=[N+]([O-])c1ccc(-n2cc(COC(c3cccs3)c3cc4ccccc4nc3Cl)nn2)cc1 (stereo not drawn)
HeLa [13]
  growth inhibition (GI): <10%
MCF7 [14]
  growth inhibition (GI): <10%
HCT-116 [15]
  growth inhibition (GI): <10%
HepG2 [16]
  growth inhibition (GI): <10%

## COc1ccc(-n2cc(COC(c3cccs3)c3cc4ccccc4nc3Cl)nn2)cc1 (stereo not drawn)
HeLa [13]
  growth inhibition (GI): <10%
MCF7 [14]
  growth inhibition (GI): <10%
HCT-116 [15]
  growth inhibition (GI): 32.52%
HepG2 [16]
  growth inhibition (GI): <10%

## CC[C@@]1(O)C(=O)OCc2c1cc1n(c2=O)Cc2cc3c(CN(C)C)c(O)ccc3nc2-1 [TOPOTECAN]
DNA topoisomerase II [2]
  inhibition: 66.5%
DNA topoisomerase II [3]
  inhibition: 32%
DNA topoisomerase II [4]
  IC50: 0.73 µM
DNA topoisomerase II [17]
  IC50: 0.48 µM
DNA topoisomerase II [18]
  inhibition: 85.6%
DNA topoisomerase II [19]
  inhibition: 92.8%

## O=c1[nH]cc(F)c(=O)[nH]1 [FLUOROURACIL]
HCT-116 [1]; [21]
  IC50: 63.9 µM
MCF7 [20]
  fold change (FC): 26 - 26.1
HeLa [7]
  fold change (FC): 94.4
MCF7 [8]; [22]
  IC50: > 100 µM
HepG2 [10]; [23]
  IC50: > 100 µM
HeLa [12]; [24]
  IC50: 20.4 µM

## FC(F)(F)c1cccc(COC(c2cccs2)c2cc3ccccc3nc2Cl)c1 (stereo not drawn)
HCT-116 [1]; hct-116
  IC50: Not Active
HeLa [13]
  growth inhibition (GI): 42.42%
MCF7 [14]
  growth inhibition (GI): 52.9%
HCT-116 [15]
  growth inhibition (GI): 23.22%
MCF7 [8]; [22]
  IC50: 101 µM
HepG2 [16]
  growth inhibition (GI): <10%
HepG2 [10]; hepg2
  IC50: Not Active
HeLa [12]; hela
  IC50: Not Active
